Data published in PubChem BioAssay AID2060497 (Molecular Pharmacology Branch, DTP, NCI, 2025).

System: 317291-083-R-J1-PDC complex spheroids, viability
Assay: Anticancer human tumor 317291-083-R-J1-PDC patient-derived soft tissue sarcoma cell line growth inhibition [GQUAD]
Conditions: for IC50: curve of first compound; for viability, T/C: stronger effect = lower value
Procedure, shortened: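 Tumor cells were grown as complex spheroids with HUVEC endothelial cells and mesenchymal stem cells as stroma. G-quadruplex stabilizers were combined with targeted agents over half-log dilutions from near the clinical Cmax, or from 10 microM.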

[1] = second compound 0.0316 µM, first compound 0.0316 µM
[2] = second compound 0.0316 µM, first compound 0.316 µM
[3] = second compound 0.1 µM, first compound 0.0316 µM
[4] = second compound 0.1 µM, first compound 0.316 µM
[5] = second compound 0.316 µM, first compound 0.0316 µM
[6] = second compound 0.316 µM, first compound 0.316 µM
[7] = second compound 1 µM, first compound 0.0316 µM
[8] = second compound 1 µM, first compound 0.316 µM
[9] = second compound 3.16 µM, first compound 0.0316 µM
[10] = second compound 3.16 µM, first compound 0.316 µM
[11] = second compound 10 µM, first compound 0.0316 µM
[12] = second compound 10 µM, first compound 0.316 µM
[13] = second compound 0.0316 µM, first compound 0.1 µM
[14] = second compound 0.0316 µM, first compound 1 µM
[15] = second compound 0.0316 µM, first compound 3.16 µM
[16] = second compound 0.0316 µM, first compound 10 µM
[17] = second compound 0.1 µM, first compound 0.1 µM
[18] = second compound 0.1 µM, first compound 1 µM
[19] = second compound 0.1 µM, first compound 3.16 µM
[20] = second compound 0.1 µM, first compound 10 µM
[21] = second compound 0.316 µM, first compound 0.1 µM
[22] = second compound 0.316 µM, first compound 1 µM
[23] = second compound 0.316 µM, first compound 3.16 µM
[24] = second compound 0.316 µM, first compound 10 µM
[25] = second compound 1 µM, first compound 0.1 µM
[26] = second compound 1 µM, first compound 1 µM
[27] = second compound 1 µM, first compound 3.16 µM
[28] = second compound 1 µM, first compound 10 µM
[29] = second compound 3.16 µM, first compound 0.1 µM
[30] = second compound 3.16 µM, first compound 1 µM
[31] = second compound 3.16 µM, first compound 3.16 µM
[32] = second compound 3.16 µM, first compound 10 µM
[33] = second compound 10 µM, first compound 0.1 µM
[34] = second compound 10 µM, first compound 1 µM
[35] = second compound 10 µM, first compound 3.16 µM
[36] = second compound 10 µM, first compound 10 µM
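Note: spheroids exposed to compounds for one week before readout.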
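Throughout, for viability, T/C: percent viability relative to DMSO vehicle wells taken as 100%.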

For `Cn1ncnc1[C@H]1c2n[nH]c(=O)c3cc(F)cc(c23)N[C@@H]1c1ccc(F)cc1` + Cc1[nH]c2ccc(F)cc2c1-c1nc2c3cccnc3c3ncccc3c2[nH]1, the IC50 (second compound 0.0316 µM) was > 316 nM, the IC50 (second compound 0.1 µM) was > 316 nM and the IC50 (second compound 0.316 µM) was > 316 nM. For the same molecule, the IC50 (second compound 1 µM) was > 316 nM, the IC50 (second compound 3.16 µM) was > 316 nM and the IC50 (second compound 10 µM) was > 316 nM. The viability, T/C (second compound 0.0316 µM, first compound 0.000999 µM) was 104%, the viability, T/C (second compound 0.0316 µM, first compound 0.00316 µM) was 101% and the viability, T/C (second compound 0.0316 µM, first compound 0.00999 µM) was 120%. The viability, T/C [1] was 87.8%, the viability, T/C (second compound 0.0316 µM, first compound 0.0999 µM) was 92% and the viability, T/C [2] was 77.2%. For the same molecule, the viability, T/C (second compound 0.1 µM, first compound 0.000999 µM) was 119%, the viability, T/C (second compound 0.1 µM, first compound 0.00316 µM) was 99.2% and the viability, T/C (second compound 0.1 µM, first compound 0.00999 µM) was 113%. For the same molecule, the viability, T/C [3] was 112%, the viability, T/C (second compound 0.1 µM, first compound 0.0999 µM) was 91.6% and the viability, T/C [4] was 64.7%. It also gave a viability, T/C (second compound 0.316 µM, first compound 0.000999 µM) of 112%, a viability, T/C (second compound 0.316 µM, first compound 0.00316 µM) of 114% and a viability, T/C (second compound 0.316 µM, first compound 0.00999 µM) of 97.7%. It also gave a viability, T/C [5] of 94.3%, a viability, T/C (second compound 0.316 µM, first compound 0.0999 µM) of 108% and a viability, T/C [6] of 91.1%. It also gave a viability, T/C (second compound 1 µM, first compound 0.000999 µM) of 120%, a viability, T/C (second compound 1 µM, first compound 0.00316 µM) of 113% and a viability, T/C (second compound 1 µM, first compound 0.00999 µM) of 89.5%. It also gave a viability, T/C [7] of 89.3%, a viability, T/C (second compound 1 µM, first compound 0.0999 µM) of 91.1% and a viability, T/C [8] of 72.3%. The viability, T/C (second compound 3.16 µM, first compound 0.000999 µM) was 106%, the viability, T/C (second compound 3.16 µM, first compound 0.00316 µM) was 99.7% and the viability, T/C (second compound 3.16 µM, first compound 0.00999 µM) was 96.7%. The viability, T/C [9] was 73.4%, the viability, T/C (second compound 3.16 µM, first compound 0.0999 µM) was 75.3% and the viability, T/C [10] was 57.1%. It also gave a viability, T/C (second compound 10 µM, first compound 0.000999 µM) of 96.1%, a viability, T/C (second compound 10 µM, first compound 0.00316 µM) of 100% and a viability, T/C (second compound 10 µM, first compound 0.00999 µM) of 102%. It also gave a viability, T/C [11] of 75.4%, a viability, T/C (second compound 10 µM, first compound 0.0999 µM) of 86% and a viability, T/C [12] of 68.7%.
Work on `CCCS(=O)(=O)Nc1ccc(F)c(C(=O)c2c[nH]c3ncc(-c4ccc(Cl)cc4)cc23)c1F` + CN(C)c1ccc(Nc2c3ccc(NC(=O)CCN4CCCC4)cc3nc3cc(NC(=O)CCN4CCCC4)ccc23)cc1 yielded an IC50 (second compound 0.0316 µM) of 4160 nM, an IC50 (second compound 0.1 µM) of 3840 nM and an IC50 (second compound 0.316 µM) of 684 nM. For the same molecule, the IC50 (second compound 1 µM) was < 31.6 nM, the IC50 (second compound 3.16 µM) was < 31.6 nM and the IC50 (second compound 10 µM) was < 31.6 nM. For the same molecule, the viability, T/C [1] was 121%, the viability, T/C [13] was 107% and the viability, T/C [2] was 108%. For the same molecule, the viability, T/C [14] was 102%, the viability, T/C [15] was 60.4% and the viability, T/C [16] was 15.4%. It also gave a viability, T/C [3] of 106%, a viability, T/C [17] of 99.9% and a viability, T/C [4] of 82.9%. The viability, T/C [18] was 87.1%, the viability, T/C [19] was 56.9% and the viability, T/C [20] was 13.6%. For the same molecule, the viability, T/C [5] was 86.6%, the viability, T/C [21] was 72.3% and the viability, T/C [6] was 56.3%. For the same molecule, the viability, T/C [22] was 49.2%, the viability, T/C [23] was 30.6% and the viability, T/C [24] was 14.1%. It also gave a viability, T/C [7] of 45.6%, a viability, T/C [25] of 25.1% and a viability, T/C [8] of 38.2%. It also gave a viability, T/C [26] of 30.3%, a viability, T/C [27] of 28.7% and a viability, T/C [28] of 6.94%. For the same molecule, the viability, T/C [9] was 5.58%, the viability, T/C [29] was 0.71% and the viability, T/C [10] was 9.21%. For the same molecule, the viability, T/C [30] was 1.39%, the viability, T/C [31] was 4.27% and the viability, T/C [32] was 1.07%. The viability, T/C [11] was 0.47%, the viability, T/C [33] was 0.37% and the viability, T/C [12] was 0.54%. It also gave a viability, T/C [34] of 2.11%, a viability, T/C [35] of 0.46% and a viability, T/C [36] of 0.51%.
With `Nc1ccn(C2OC(CO)C(O)C2(F)F)c(=O)n1` (stereo not drawn) + CN(C)c1ccc(Nc2c3ccc(NC(=O)CCN4CCCC4)cc3nc3cc(NC(=O)CCN4CCCC4)ccc23)cc1 the IC50 (second compound 0.0316 µM) was 44.5 nM, the IC50 (second compound 0.1 µM) was 37.7 nM and the IC50 (second compound 0.316 µM) was < 31.6 nM. The IC50 (second compound 1 µM) was < 31.6 nM, the IC50 (second compound 3.16 µM) was < 31.6 nM and the IC50 (second compound 10 µM) was < 31.6 nM. It also gave a viability, T/C [1] of 62.2%, a viability, T/C [13] of 21.4% and a viability, T/C [2] of 12.5%. The viability, T/C [14] was 11.5%, the viability, T/C [15] was 13.7% and the viability, T/C [16] was 11.4%. The viability, T/C [3] was 54.9%, the viability, T/C [17] was 23.9% and the viability, T/C [4] was 13.7%. For the same molecule, the viability, T/C [18] was 10.9%, the viability, T/C [19] was 10.9% and the viability, T/C [20] was 9.57%. It also gave a viability, T/C [5] of 44.9%, a viability, T/C [21] of 27.4% and a viability, T/C [6] of 11.9%. For the same molecule, the viability, T/C [22] was 9.85%, the viability, T/C [23] was 9.6% and the viability, T/C [24] was 8.28%. For the same molecule, the viability, T/C [7] was 26.9%, the viability, T/C [25] was 27.8% and the viability, T/C [8] was 10.5%. It also gave a viability, T/C [26] of 7.35%, a viability, T/C [27] of 7.21% and a viability, T/C [28] of 7.95%. For the same molecule, the viability, T/C [9] was 15.6%, the viability, T/C [29] was 7.01% and the viability, T/C [10] was 6.98%. For the same molecule, the viability, T/C [30] was 4.89%, the viability, T/C [31] was 4.18% and the viability, T/C [32] was 5.05%. The viability, T/C [11] was 10.3%, the viability, T/C [33] was 3.73% and the viability, T/C [12] was 1.83%. For the same molecule, the viability, T/C [34] was 4.43%, the viability, T/C [35] was 2.4% and the viability, T/C [36] was 2.72%.
Work on `COc1ccc([C@@H](O)c2cc(-c3ncnc4cc(N5CCOCC5)ccc34)c(F)cc2Cl)nn1` + Cc1cnc(CNC(=O)c2c(=O)c3ccc(N4CCCN(C)CC4)nc3n3c2sc2ccccc23)cn1 yielded an IC50 (second compound 0.0316 µM) of 2030 nM, an IC50 (second compound 0.1 µM) of 163 nM and an IC50 (second compound 0.316 µM) of 61.9 nM. The IC50 (second compound 1 µM) was < 31.6 nM, the IC50 (second compound 3.16 µM) was < 31.6 nM and the IC50 (second compound 10 µM) was < 31.6 nM. It also gave a viability, T/C [1] of 108%, a viability, T/C [13] of 92.1% and a viability, T/C [2] of 68.2%. For the same molecule, the viability, T/C [14] was 66.6%, the viability, T/C [15] was 41.5% and the viability, T/C [16] was 30.7%. The viability, T/C [3] was 85.9%, the viability, T/C [17] was 50.3% and the viability, T/C [4] was 49.4%. The viability, T/C [18] was 35.1%, the viability, T/C [19] was 24.1% and the viability, T/C [20] was 31.8%. The viability, T/C [5] was 58.2%, the viability, T/C [21] was 42.9% and the viability, T/C [6] was 38.1%. For the same molecule, the viability, T/C [22] was 22.4%, the viability, T/C [23] was 24.2% and the viability, T/C [24] was 19.8%. The viability, T/C [7] was 41%, the viability, T/C [25] was 25.3% and the viability, T/C [8] was 19.6%. The viability, T/C [26] was 23.4%, the viability, T/C [27] was 33.7% and the viability, T/C [28] was 22.7%. It also gave a viability, T/C [9] of 40.1%, a viability, T/C [29] of 41.4% and a viability, T/C [10] of 19.8%. For the same molecule, the viability, T/C [30] was 20.6%, the viability, T/C [31] was 23% and the viability, T/C [32] was 16.9%. The viability, T/C [11] was 19.1%, the viability, T/C [33] was 40.8% and the viability, T/C [12] was 17.7%. The viability, T/C [34] was 17.3%, the viability, T/C [35] was 18.6% and the viability, T/C [36] was 19.9%.
